Measured values taken from the supplement of paper PMC10307832.

Legend:
Assay in all cases: relative viability (nuclei count vs DMSO), 5 days (fraction); higher = more cells survive
Veliparib + Dasatinib = compound: C[C@]1(c2nc3c(C(N)=O)cccc3[nH]2)CCCN1 [Veliparib] + Cc1nc(Nc2ncc(C(=O)Nc3c(C)cccc3Cl)s2)cc(N2CCN(CCO)CC2)n1 [Dasatinib] (partner 0.075 µM)
Method in brief: (§1)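 Medians of duplicate plates are given as relative viability. That measure is the nuclei count in treated wells divided by the count in vehicle wells. Counts were taken on 4× images of lung cancer cell lines in 1536-well plates, 5 days after pin-tool dosing the day after seeding with one drug alone or a fixed anchor-drug dose plus five library-drug doses (not always all listed) in √10 steps.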

Veliparib + Luminespib = compound: C[C@]1(c2nc3c(C(N)=O)cccc3[nH]2)CCCN1 [Veliparib] + CCNC(=O)c1noc(-c2cc(C(C)C)c(O)cc2O)c1-c1ccc(CN2CCOCC2)cc1 [Luminespib] (partner 0.01 µM)
Method in brief: as §1

[1] = compound: COC1=CC=C(C=C1)CN2C=CC3=C2C=C(C=C3)C(=O)NO + CC(C)C[C@H](NC(=O)[C@H](Cc1ccccc1)NC(=O)c1cnccn1)B(O)O [Bortezomib] (partner 0.002 µM)
Method in brief: as §1

[2] = compound: COC1=CC=C(C=C1)CN2C=CC3=C2C=C(C=C3)C(=O)NO + Nc1ncn([C@H]2C[C@H](O)[C@@H](CO)O2)c(=O)n1 [Decitabine] (partner 2 µM)
Method in brief: as §1

Cell Line | relative viability (Veliparib + Dasatinib; first compound 0.02 µM) | relative viability (Veliparib + Dasatinib; first compound 0.06325 µM) | relative viability (Veliparib + Dasatinib; first compound 0.2 µM) | relative viability (Veliparib + Dasatinib; first compound 0.6325 µM) | relative viability (Veliparib + Dasatinib; first compound 2 µM) | relative viability (Veliparib + Luminespib; first compound 0.02 µM) | relative viability (Veliparib + Luminespib; first compound 0.06325 µM) | relative viability (Veliparib + Luminespib; first compound 0.2 µM) | relative viability (Veliparib + Luminespib; first compound 0.6325 µM) | relative viability (Veliparib + Luminespib; first compound 2 µM) | relative viability ([1]; first compound 0.08 µM) | relative viability ([1]; first compound 0.253 µM) | relative viability ([1]; first compound 0.8 µM) | relative viability ([1]; first compound 2.53 µM) | relative viability ([1]; first compound 8 µM) | relative viability ([2]; first compound 0.08 µM) | relative viability ([2]; first compound 0.253 µM) | relative viability ([2]; first compound 0.8 µM) | relative viability ([2]; first compound 2.53 µM) | relative viability ([2]; first compound 8 µM)
NCI-H2126 | 0.618 | 0.539 | 0.612 | 0.658 | 0.668 | 0.875 | 0.908 | 0.839 | 0.901 | 0.95 | 1.06 | 1.09 | 1.15 | 1.12 | 1.05 | 0.574 | 0.535 | 0.578 | 0.585 | 0.621
NCI-H2347 | 0.327 | 0.266 | 0.275 | 0.336 | 0.315 | 0.484 | 0.54 | 0.649 | 0.547 | 0.427 | – | 0.933 | 0.887 | 0.874 | 0.727 | 0.612 | 0.691 | 0.681 | 0.61 | 0.577
NCI-H2405 | 0.225 | 0.171 | 0.225 | 0.244 | 0.222 | 0.695 | 0.609 | 0.771 | 0.666 | 0.711 | 0.546 | 0.924 | 1.02 | 1.01 | 0.961 | 0.516 | – | 0.791 | 0.752 | 0.66
NCI-H3122 | 0.674 | 0.792 | 0.84 | 0.766 | 0.572 | 0.0959 | 0.0908 | 0.097 | 0.0912 | 0.0755 | 1.06 | 1.03 | 1.04 | 1.09 | 0.983 | 0.467 | 0.479 | 0.484 | 0.468 | 0.386
